According to the supplement of paper PMC10307832:

How the values were obtained:
Assay in all cases: relative viability (nuclei count vs DMSO), 5 days (fraction); higher = more cells survive
Neratinib + Luminespib = compound: CCOc1cc2ncc(C#N)c(Nc3ccc(OCc4ccccn4)c(Cl)c3)c2cc1NC(=O)/C=C/CN(C)C [Neratinib] + CCNC(=O)c1noc(-c2cc(C(C)C)c(O)cc2O)c1-c1ccc(CN2CCOCC2)cc1 [Luminespib] (partner 0.01 µM)
Procedure, shortened: (§1)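 Lung cancer cell lines, seeded in 1536-well plates, were treated the following day by pin tool with a single drug or with five library-drug doses (not always all listed) in √10 steps on top of a fixed anchor-drug dose. Cells were fixed and nuclei stained in one step after 5 days, and nuclei were counted. Relative viability is the nuclei count for treated wells divided by that for vehicle wells, reported as medians of duplicate plates.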

Neratinib + Navitoclax = compound: CCOc1cc2ncc(C#N)c(Nc3ccc(OCc4ccccn4)c(Cl)c3)c2cc1NC(=O)/C=C/CN(C)C [Neratinib] + CC1(C)CCC(c2ccc(Cl)cc2)=C(CN2CCN(c3ccc(C(=O)NS(=O)(=O)c4ccc(N[C@H](CCN5CCOCC5)CSc5ccccc5)c(S(=O)(=O)C(F)(F)F)c4)cc3)CC2)C1 [Navitoclax] (partner 0.5 µM)
Procedure, shortened: as §1

Neratinib + Foretinib = compound: CCOc1cc2ncc(C#N)c(Nc3ccc(OCc4ccccn4)c(Cl)c3)c2cc1NC(=O)/C=C/CN(C)C [Neratinib] + COc1cc2c(Oc3ccc(NC(=O)C4(C(=O)Nc5ccc(F)cc5)CC4)cc3F)ccnc2cc1OCCCN1CCOCC1 [Foretinib] (partner 0.25 µM)
Procedure, shortened: as §1

Neratinib + Linsitinib = compound: CCOc1cc2ncc(C#N)c(Nc3ccc(OCc4ccccn4)c(Cl)c3)c2cc1NC(=O)/C=C/CN(C)C [Neratinib] + C[C@]1(O)C[C@@H](c2nc(-c3ccc4ccc(-c5ccccc5)nc4c3)c3c(N)nccn32)C1 [Linsitinib] (partner 1 µM)
Procedure, shortened: as §1

| Cell Line | relative viability (Neratinib + Luminespib; first compound 0.01 µM) | relative viability (Neratinib + Luminespib; first compound 0.03162 µM) | relative viability (Neratinib + Luminespib; first compound 0.1 µM) | relative viability (Neratinib + Luminespib; first compound 0.3162 µM) | relative viability (Neratinib + Luminespib; first compound 1 µM) | relative viability (Neratinib + Navitoclax; first compound 0.03162 µM) | relative viability (Neratinib + Navitoclax; first compound 0.1 µM) | relative viability (Neratinib + Navitoclax; first compound 0.3162 µM) | relative viability (Neratinib + Navitoclax; first compound 1 µM) | relative viability (Neratinib + Foretinib; first compound 0.01 µM) | relative viability (Neratinib + Foretinib; first compound 0.1 µM) | relative viability (Neratinib + Foretinib; first compound 0.3162 µM) | relative viability (Neratinib + Foretinib; first compound 1 µM) | relative viability (Neratinib + Linsitinib; first compound 0.01 µM) | relative viability (Neratinib + Linsitinib; first compound 0.03162 µM) | relative viability (Neratinib + Linsitinib; first compound 0.1 µM) | relative viability (Neratinib + Linsitinib; first compound 0.3162 µM) | relative viability (Neratinib + Linsitinib; first compound 1 µM) | relative viability (Neratinib + Navitoclax; first compound 0.01 µM) | relative viability (Neratinib + Foretinib; first compound 0.03162 µM) |
| --- | --- | --- | --- | --- | --- | --- | --- | --- | --- | --- | --- | --- | --- | --- | --- | --- | --- | --- | --- | --- |
| LU99A | 0.268 | 0.19 | 0.231 | 0.333 | 0.22 | 0.881 | 0.708 | 0.799 | 0.359 | 0.959 | 0.73 | 0.462 | 0.376 | 0.608 | 0.643 | 0.365 | 0.575 | 0.215 | – | – |
| LXF-289 | 0.726 | 0.805 | – | 0.695 | 0.453 | 0.972 | 0.923 | – | 0.878 | 1 | 0.961 | 0.995 | 0.709 | 0.998 | 1.01 | 0.913 | 0.98 | 0.789 | 0.975 | 1 |
| NCI-H23 | 0.201 | 0.231 | 0.203 | 0.225 | 0.204 | 1.12 | 0.694 | 0.838 | 0.528 | – | – | 0.942 | 0.463 | 0.62 | – | 0.486 | 0.552 | 0.398 | 0.745 | 0.686 |
| NCI-H322M | 0.852 | 0.796 | 0.701 | 0.392 | 0.352 | 1.17 | 0.558 | 0.701 | 0.627 | 0.863 | – | 0.408 | 0.361 | 0.752 | 0.929 | 0.793 | 0.486 | 0.337 | 1.18 | 0.958 |
| NCI-H441 | 0.415 | 0.413 | 0.423 | 0.304 | 0.16 | 0.571 | 0.707 | 0.624 | 0.173 | 1.01 | 1.07 | 0.856 | 0.492 | 0.585 | 0.716 | 0.469 | 0.267 | 0.219 | 0.767 | 1.04 |
| NCI-H460 | 0.0344 | 0.0284 | 0.0244 | 0.0268 | 0.0188 | 1.3 | – | 1.11 | 0.441 | 1.12 | 0.862 | 1.04 | 0.87 | 0.918 | 1.1 | – | 0.612 | 0.222 | 1.37 | 1.15 |
| NCI-H520 | 0.244 | 0.207 | 0.231 | 0.214 | 0.228 | 1.42 | 0.965 | 1.03 | 0.779 | 0.96 | 0.61 | – | 0.394 | 1.04 | 0.981 | 1.08 | 0.742 | – | 1.1 | – |
| NCI-H596 | 1.04 | 1.04 | 1.02 | 1.02 | 0.758 | 1.01 | 0.954 | 1.04 | 0.787 | 0.89 | – | 0.798 | 0.622 | 1.2 | 1.07 | 0.995 | 0.923 | 0.791 | 0.998 | 0.986 |
| NCI-H647 | 0.308 | 0.128 | 0.0778 | 0.153 | 0.118 | 1.41 | 1.05 | 1.12 | 0.383 | 1.36 | – | 1.11 | 0.601 | 1.08 | 1.16 | 1.14 | 1.07 | 0.601 | 1.14 | 1.34 |
| NCI-H727 | 0.382 | 0.337 | 0.328 | 0.312 | 0.352 | 0.443 | – | 0.4 | 0.267 | 0.978 | 0.793 | 0.842 | 0.558 | 0.244 | 0.282 | – | 0.286 | 0.255 | 0.446 | 0.709 |
| NCI-H838 | 0.252 | 0.269 | 0.258 | 0.22 | 0.21 | 1.22 | 0.972 | 0.995 | 0.588 | 1.12 | 0.885 | – | 0.656 | 1.06 | 1.17 | 0.945 | 0.819 | 0.409 | 1.21 | 1.08 |
| NCI-H1355 | 0.709 | 0.821 | 0.725 | 0.6 | 0.465 | 1.06 | 0.825 | 0.843 | 0.618 | – | 0.874 | 0.842 | 0.366 | 0.894 | 0.825 | 0.775 | 0.63 | 0.453 | 0.912 | – |
| NCI-H1395 | 0.59 | – | 0.903 | 0.814 | 0.418 | 1.24 | 1.14 | 1.08 | 0.734 | 0.919 | – | 1.02 | 0.668 | 1.13 | 1.24 | 0.991 | 1.2 | 0.619 | 1.16 | 1.03 |
| NCI-H1437 | 1.21 | 1.08 | 1 | 1.11 | 1.09 | 1.12 | 1.05 | 1 | 1.05 | 1.32 | 1.18 | 1.19 | 1.28 | 1.27 | 1.1 | – | 0.793 | 0.723 | 1.14 | 1.26 |
| NCI-H1651 | 0.723 | 1.32 | 0.654 | 0.896 | 0.546 | 1.17 | 0.878 | 0.84 | 0.742 | 0.789 | 0.715 | 0.593 | 0.464 | 1.13 | 0.925 | 0.911 | 0.747 | 0.786 | 1.2 | 0.867 |
| NCI-H1666 | – | 0.951 | – | 0.752 | 0.846 | – | 0.685 | 0.311 | 0.347 | 0.973 | 0.754 | 0.646 | 0.721 | 0.876 | 0.654 | 0.591 | 0.372 | 0.361 | 0.971 | 0.912 |
| NCI-H1734 | 0.202 | 0.206 | 0.169 | 0.204 | 0.153 | 1.02 | 0.789 | 0.818 | 0.557 | 0.953 | 0.683 | 0.775 | 0.469 | 0.997 | 0.925 | 0.814 | 0.754 | 0.646 | 0.902 | 0.887 |
